Measurements from PubChem BioAssay (NCI).
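Assay format: 96-well plates, 48-hour exposure. Abbreviation: GI50, concentration required for 50% inhibition of growth. Definition used: TGI = concentration required for complete inhibition of growth.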

Legend:
Assay in all cases: growth of human tumour cells (NCI), 48 h
[1] = test system: 786-0 renal
[2] = test system: A498 renal
[3] = test system: A549 NSCLC
[4] = test system: ACHN renal
[5] = test system: CAKI-1 renal
[6] = test system: CCRF-CEM leukemia
[7] = test system: COLO 205 colon
[8] = test system: DLD-1 colon
[9] = test system: DMS 114 small cell lung
[10] = test system: DMS 273 small cell lung
[11] = test system: EKVX NSCLC
[12] = test system: HCC-2998 colon
[13] = test system: HCT-116 colon
[14] = test system: HCT-15 colon
[15] = test system: HL-60(TB) leukemia
[16] = test system: HOP-18 NSCLC
[17] = test system: HOP-62 NSCLC
[18] = test system: HT29 colon
[19] = test system: IGROV1 ovarian
[20] = test system: K-562 leukemia
[21] = test system: KM12 colon
[22] = test system: KM20L2 colon
[23] = test system: LOX IMVI melanoma
[24] = test system: LXFL 529 NSCLC
[25] = test system: M14 melanoma
[26] = test system: M19-MEL melanoma
[27] = test system: MALME-3M melanoma
[28] = test system: MOLT-4 leukemia
[29] = test system: NCI-H226 lung
[30] = test system: NCI-H23 lung
[31] = test system: NCI-H522 lung
[32] = test system: OVCAR-3 ovarian
[33] = test system: OVCAR-4 ovarian
[34] = test system: OVCAR-5 ovarian
[35] = test system: OVCAR-8 ovarian
[36] = test system: RPMI-8226 leukemia
[37] = test system: RXF 393 renal
[38] = test system: SF-268 CNS
[39] = test system: SF-295 CNS
[40] = test system: SF-539 CNS
[41] = test system: SK-MEL-2 melanoma
[42] = test system: SK-MEL-28 melanoma
[43] = test system: SK-MEL-5 melanoma
[44] = test system: SK-OV-3 ovarian
[45] = test system: SN12C renal
[46] = test system: SNB-19 CNS
[47] = test system: SNB-75 CNS
[48] = test system: SNB-78 CNS
[49] = test system: SW-620 colon
[50] = test system: TK-10 renal
[51] = test system: UACC-257 melanoma
[52] = test system: UACC-62 melanoma
[53] = test system: UO-31 renal
[54] = test system: XF 498 CNS
[55] = test system: HOP-92 NSCLC
[56] = test system: NCI-H460 lung
[57] = test system: SR leukemia
[58] = test system: U251 CNS

For `[O-]c1ccccc1/C=N/c1nccs1.[O-]c1ccccc1/C=N/c1nccs1.[O]=[U+2]=[O]`, the GI50 [1] was 25 µM, the TGI [1] was over 100 µM and the GI50 [2] was 26.2 µM. It also gave a TGI [2] of over 100 µM, a GI50 [3] of over 100 µM and a TGI [3] of over 100 µM. The GI50 [4] was over 100 µM, the TGI [4] was over 100 µM and the GI50 [5] was 37.9 µM. For the same molecule, the TGI [5] was over 100 µM, the GI50 [6] was over 100 µM and the TGI [6] was over 100 µM. The GI50 [7] was over 100 µM, the TGI [7] was over 100 µM and the GI50 [8] was 22.4 µM. For the same molecule, the TGI [8] was over 100 µM, the GI50 [9] was 11.1 µM and the TGI [9] was over 100 µM. For the same molecule, the GI50 [10] was 7.15 µM, the TGI [10] was over 100 µM and the GI50 [11] was over 100 µM. The TGI [11] was over 100 µM, the GI50 [12] was 75.1 µM and the TGI [12] was over 100 µM. The GI50 [13] was 11.5 µM, the TGI [13] was over 100 µM and the GI50 [14] was 22.2 µM. It also gave a TGI [14] of over 100 µM, a GI50 [15] of 35.5 µM and a TGI [15] of over 100 µM. For the same molecule, the GI50 [16] was 5.75 µM, the TGI [16] was over 100 µM and the GI50 [17] was over 100 µM. It also gave a TGI [17] of over 100 µM, a GI50 [18] of over 100 µM and a TGI [18] of over 100 µM. For the same molecule, the GI50 [19] was 42.4 µM, the TGI [19] was over 100 µM and the GI50 [20] was 57.1 µM. The TGI [20] was over 100 µM, the GI50 [21] was over 100 µM and the TGI [21] was over 100 µM. For the same molecule, the GI50 [22] was over 100 µM, the TGI [22] was over 100 µM and the GI50 [23] was 25.7 µM. For the same molecule, the TGI [23] was over 100 µM, the GI50 [24] was 29.1 µM and the TGI [24] was over 100 µM. The GI50 [25] was over 100 µM, the TGI [25] was over 100 µM and the GI50 [26] was over 100 µM. For the same molecule, the TGI [26] was over 100 µM, the GI50 [27] was over 100 µM and the TGI [27] was over 100 µM. The GI50 [28] was 27.4 µM, the TGI [28] was over 100 µM and the GI50 [29] was over 100 µM. It also gave a TGI [29] of over 100 µM, a GI50 [30] of over 100 µM and a TGI [30] of over 100 µM. For the same molecule, the GI50 [31] was 61.4 µM, the TGI [31] was over 100 µM and the GI50 [32] was over 100 µM. The TGI [32] was over 100 µM, the GI50 [33] was over 100 µM and the TGI [33] was over 100 µM. For the same molecule, the GI50 [34] was over 100 µM, the TGI [34] was over 100 µM and the GI50 [35] was over 100 µM. For the same molecule, the TGI [35] was over 100 µM, the GI50 [36] was 37.7 µM and the TGI [36] was over 100 µM. It also gave a GI50 [37] of over 100 µM, a TGI [37] of over 100 µM and a GI50 [38] of over 100 µM. It also gave a TGI [38] of over 100 µM, a GI50 [39] of over 100 µM and a TGI [39] of over 100 µM. For the same molecule, the GI50 [40] was 23.6 µM, the TGI [40] was over 100 µM and the GI50 [41] was over 100 µM. For the same molecule, the TGI [41] was over 100 µM, the GI50 [42] was over 100 µM and the TGI [42] was over 100 µM. It also gave a GI50 [43] of over 100 µM, a TGI [43] of over 100 µM and a GI50 [44] of over 100 µM. It also gave a TGI [44] of over 100 µM, a GI50 [45] of over 100 µM and a TGI [45] of over 100 µM. For the same molecule, the GI50 [46] was 12.7 µM, the TGI [46] was over 100 µM and the GI50 [47] was over 100 µM. For the same molecule, the TGI [47] was over 100 µM, the GI50 [48] was over 100 µM and the TGI [48] was over 100 µM. The GI50 [49] was 99.8 µM, the TGI [49] was over 100 µM and the GI50 [50] was 33.6 µM. The TGI [50] was 78.7 µM, the GI50 [51] was over 100 µM and the TGI [51] was over 100 µM. For the same molecule, the GI50 [52] was over 100 µM, the TGI [52] was over 100 µM and the GI50 [53] was 37.4 µM. The TGI [53] was over 100 µM, the GI50 [54] was 98.9 µM and the TGI [54] was over 100 µM.

With `COc1ccc(N2C(=O)C3CC(c4ccc(C)cc4)c4c([nH]c5ccccc45)C3C2=O)cc1` (centres undefined) the TGI [1] was 26.6 µM, the TGI [2] was 55.6 µM and the TGI [3] was 43.3 µM. It also gave a TGI [4] of over 63.8 µM, a TGI [5] of over 100 µM and a TGI [6] of over 45.6 µM. It also gave a TGI [7] of over 48.5 µM, a TGI [8] of over 100 µM and a TGI [9] of over 86 µM. The TGI [10] was over 100 µM, the TGI [11] was over 100 µM and the TGI [12] was over 100 µM. It also gave a TGI [13] of 17.2 µM, a TGI [14] of over 89.7 µM and a TGI [15] of 30.9 µM. For the same molecule, the TGI [16] was 10.3 µM, the TGI [17] was 53.7 µM and the TGI [55] was 73.7 µM. The TGI [18] was over 100 µM, the TGI [19] was over 79.6 µM and the TGI [20] was over 100 µM. For the same molecule, the TGI [21] was over 100 µM, the TGI [22] was over 100 µM and the TGI [23] was 26.4 µM. For the same molecule, the TGI [24] was over 56.1 µM, the TGI [25] was over 89.2 µM and the TGI [26] was over 100 µM. It also gave a TGI [27] of 49.6 µM, a TGI [28] of over 58.7 µM and a TGI [29] of 28.1 µM. It also gave a TGI [30] of over 93.9 µM, a TGI [56] of 31.8 µM and a TGI [31] of 51 µM. The TGI [32] was 12.3 µM, the TGI [33] was 27.5 µM and the TGI [34] was over 100 µM. It also gave a TGI [35] of 38.9 µM, a TGI [38] of over 76.3 µM and a TGI [39] of over 86.8 µM. For the same molecule, the TGI [40] was over 62.5 µM, the TGI [41] was over 100 µM and the TGI [42] was 99.7 µM. The TGI [43] was over 100 µM, the TGI [44] was 93 µM and the TGI [45] was 31.8 µM. For the same molecule, the TGI [46] was over 56.3 µM, the TGI [47] was 51 µM and the TGI [48] was 98.7 µM. It also gave a TGI [57] of 4.55 µM, a TGI [49] of over 55.3 µM and a TGI [50] of over 95.3 µM. For the same molecule, the TGI [58] was 16.8 µM, the TGI [51] was over 100 µM and the TGI [52] was over 100 µM. It also gave a TGI [53] of over 70.7 µM and a TGI [54] of over 74 µM.
